From patent publication US10865208B2, “ATG7 inhibitors and the uses thereof” (Millennium Pharmaceuticals, Inc., priority 2016, dated 2020)
pIC50: −log10 of the molar value.

Target: recombinant human His-ATG7 enzyme (Homo sapiens (Human), UniProt O95352)
Assay: ATG7 Enzyme Assay (HTRF/FRET, ATG3-GST and Flag-Gabarap)
Assay type: biochemical
Conditions: for inhibition at 0.123 µM: Concentration 0.123 μM; for inhibition at 0.123 µM / inhibition at 0.111 µM: read-out: Percent Inhibition; for inhibition at 0.111 µM: Concentration 0.111 μM
In short: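 0.15 nM His-ATG7 was reacted with 5 nM ATG3-GST, 5 nM Flag-Gabarap and 10 μM ATP in HEPES pH 7.5 containing MgCl2, GSH and TCEP for 105 min at 24° C, then stopped with EDTA/KF. Eu-anti-Flag and anti-GST-APC HTRF was read after 2 h. Results are given as single-concentration % inhibition or IC50.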

Chain of recombinant human His-ATG7 enzyme (O95352 whole entry): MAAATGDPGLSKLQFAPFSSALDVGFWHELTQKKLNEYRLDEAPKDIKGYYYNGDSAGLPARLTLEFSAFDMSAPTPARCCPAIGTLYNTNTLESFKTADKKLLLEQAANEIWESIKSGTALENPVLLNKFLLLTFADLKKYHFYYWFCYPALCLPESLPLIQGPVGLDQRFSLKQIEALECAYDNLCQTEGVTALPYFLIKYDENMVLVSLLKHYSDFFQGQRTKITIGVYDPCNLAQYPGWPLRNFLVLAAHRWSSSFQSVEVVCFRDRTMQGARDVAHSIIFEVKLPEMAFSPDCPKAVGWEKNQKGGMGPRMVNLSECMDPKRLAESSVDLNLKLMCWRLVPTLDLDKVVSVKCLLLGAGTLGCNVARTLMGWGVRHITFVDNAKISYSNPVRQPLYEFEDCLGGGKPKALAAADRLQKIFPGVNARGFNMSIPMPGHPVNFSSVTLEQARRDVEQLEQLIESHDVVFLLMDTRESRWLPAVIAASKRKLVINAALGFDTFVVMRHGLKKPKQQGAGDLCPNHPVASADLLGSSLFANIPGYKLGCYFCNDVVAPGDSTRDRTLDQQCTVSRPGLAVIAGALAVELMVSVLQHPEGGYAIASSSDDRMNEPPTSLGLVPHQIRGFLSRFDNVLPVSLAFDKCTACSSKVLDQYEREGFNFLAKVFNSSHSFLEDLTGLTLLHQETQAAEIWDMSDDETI

pIC50 | inhibition at 0.123 µM [%] | inhibition at 0.111 µM [%] | Compound
7.00 to 7.30 | 58 |  | C[S+]([O-])c1nn([C@@H]2O[C@H](COS(N)(=O)=O)[C@@H](O)[C@H]2O)c2ncnc(N)c12 (stereo partly drawn) [Compound I-87, {(2R,3S,4R,5R)-5-[4-amino-3-(methylsulfinyl)-1H-pyrazolo[3,4-d]pyrimidin-1-yl]-3,4-dihydroxytetrahydrofuran-2-yl}methyl Sulfamate]
6.30 to 7.00 |  | 34 | Nc1ncnc2c1c(C(F)F)nn2[C@H]1C[C@H](O)[C@H](COS(N)(=O)=O)O1 [Compound I-217, {(2S,3S,5R)-5-[4-amino-3-(difluoromethyl)-1H-pyrazolo[3,4-d]pyrimidin-1-yl]-3-hydroxytetrahydrofuran-2-yl}methyl Sulfamate]
6.30 to 7.00 | 32 |  | COCc1nn([C@@H]2O[C@H](COS(N)(=O)=O)[C@@H](O)[C@H]2O)c2ncnc(N)c12 [Compound I-19, {(2R,3S,4R,5R)-5-[4-amino-3-(methoxymethyl)-1H-pyrazolo[3,4-d]pyrimidin-1-yl]-3,4-dihydroxytetrahydrofuran-2-yl}methyl Sulfamate]
> 7.70 |  | 89 | Nc1ncnc2c1c(Sc1ccccn1)nn2[C@@H]1O[C@H](COS(N)(=O)=O)[C@@H](O)[C@@H]1F [Compound I-113, {(2R,3R,4S,5R)-5-[4-amino-3-(pyridin-2-ylsulfanyl)-1H-pyrazolo[3,4-d]pyrimidin-1-yl]-4-fluoro-3-hydroxytetrahydrofuran-2-yl}methyl sulfamate]
7.30 to 7.70 |  | 70 | CSc1nn([C@H]2C[C@H](O)[C@@H](COS(N)(=O)=O)O2)c2ncnc(N)c12 [Compound I-200, {(2R,3S,5R)-5-[4-amino-3-(methylsulfanyl)-1H-pyrazolo[3,4-d]pyrimidin-1-yl]-3-hydroxytetrahydrofuran-2-yl}methyl Sulfamate]
7.00 to 7.30 | 64 |  | Nc1ncnc2c1c(C(F)F)nn2[C@@H]1O[C@H](COS(N)(=O)=O)[C@@H](O)[C@H]1O [Compound I-25, {(2R,3S,4R,5R)-5-[4-amino-3-(difluoromethyl)-1H-pyrazolo[3,4-d]pyrimidin-1-yl]-3,4-dihydroxytetrahydrofuran-2-yl}methyl Sulfamate]
7.00 to 7.30 |  | 65 | CC(C)Sc1nn([C@H]2C[C@H](O)[C@H](COS(N)(=O)=O)O2)c2ncnc(N)c12 [Compound I-220, {(2S,3S,5R)-5-[4-amino-3-(isopropylsulfanyl)-1H-pyrazolo[3,4-d]pyrimidin-1-yl]-3-hydroxytetrahydrofuran-2-yl}methyl sulfamate]
7.00 to 7.30 |  | 53 | Nc1ncnc2c1c(OC(F)F)nn2[C@H]1C[C@H](O)[C@@H](COS(N)(=O)=O)O1 [Compound I-195, {(2R,3S,5R)-5-[4-amino-3-(difluoromethoxy)-1H-pyrazolo[3,4-d]pyrimidin-1-yl]-3-hydroxytetrahydrofuran-2-yl}methyl Sulfamate]
7.00 to 7.30 |  | 56 | Cc1cc(Sc2nn([C@@H]3O[C@H](COS(N)(=O)=O)[C@@H](O)[C@@H]3F)c3ncnc(N)c23)c(C)o1 [Compound I-110, [(2R,3R,4S,5R)-5-{4-amino-3-[(2,5-dimethyl-3-furyl)sulfanyl]-1H-pyrazolo[3,4-d]pyrimidin-1-yl}-4-fluoro-3-hydroxytetrahydrofuran-2-yl]methyl sulfamate]
6.30 to 7.00 |  | 44 | Nc1ncnc2c1c(Sc1cccc(F)c1)nn2[C@H]1C[C@H](O)[C@@H](COS(N)(=O)=O)O1 [Compound I-206, [(2R,3S,5R)-5-{4-amino-3-[(3-fluorophenyl)sulfanyl]-1H-pyrazolo[3,4-d]pyrimidin-1-yl}-3-hydroxytetrahydrofuran-2-yl]methyl sulfamate]
7.00 to 7.30 | 64 |  | Nc1ncnc2c1c(SCc1cccc3ccccc13)nn2[C@@H]1O[C@H](COS(N)(=O)=O)[C@@H](O)[C@H]1O [Compound I-67, [(2R,3S,4R,5R)-5-{4-amino-3-[(1-naphthylmethyl)sulfanyl]-1H-pyrazolo[3,4-d]pyrimidin-1-yl}-3,4-dihydroxytetrahydrofuran-2-yl]methyl sulfamate]
< 6.30 |  | 13 | CC(Sc1nn([C@@H]2O[C@H](COS(N)(=O)=O)[C@@H](O)[C@@H]2F)c2ncnc(N)c12)C(F)(F)F (mixture of isomers) [Compound I-101, [(2R,3R,4S,5R)-5-(4-amino-3-{[(2R)-1,1,1-trifluoropropan-2-yl]sulfanyl}-1H-pyrazolo[3,4-d]pyrimidin-1-yl)-4-fluoro-3-hydroxytetrahydrofuran-2-yl]methyl Sulfamate and [(2R,3R,4S,5R)-5-(4-amino-3-{[(2S)-1,1,1-trifluoropropan-2-yl]sulfanyl}-1H-pyrazolo[3,4-d]pyrimidin-1-yl)-4-fluoro-3-hydroxytetrahydrofuran-2-yl]methyl Sulfamate]
6.30 to 7.00 |  | 48 | CC(C)[C@@H](C)Sc1nn([C@@H]2O[C@H](COS(N)(=O)=O)[C@@H](O)[C@@H]2F)c2ncnc(N)c12 [Compound I-129, [(2R,3R,4S,5R)-5-(4-amino-3-{[(2R)-3-methylbutan-2-yl]sulfanyl}-1H-pyrazolo[3,4-d]pyrimidin-1-yl)-4-fluoro-3-hydroxytetrahydrofuran-2-yl]methyl sulfamate]
6.30 to 7.00 | 42 |  | COc1nn([C@@H]2O[C@H](COS(N)(=O)=O)[C@@H](O)[C@@H]2F)c2ncnc(N)c12 [Compound I-105, [(2R,3R,4S,5R)-5-(4-amino-3-methoxy-1H-pyrazolo[3,4-d]pyrimidin-1-yl)-4-fluoro-3-hydroxytetrahydrofuran-2-yl]methyl Sulfamate]
7.30 to 7.70 | 80 |  | N#Cc1nn([C@@H]2O[C@H](COS(N)(=O)=O)[C@@H](O)[C@H]2O)c2ncnc(N)c12 [Compound I-13, [(2R,3S,4R,5R)-5-(4-amino-3-cyano-1H-pyrazolo[3,4-d]pyrimidin-1-yl)-3,4-dihydroxytetrahydrofuran-2-yl]methyl Sulfamate]
< 6.30 |  | 8 | Cc1nn([C@H]2C[C@H](O)[C@H](COS(N)(=O)=O)O2)c2ncnc(N)c12 [Compound I-218, [(2S,3S,5R)-5-(4-amino-3-methyl-1H-pyrazolo[3,4-d]pyrimidin-1-yl)-3-hydroxytetrahydrofuran-2-yl]methyl Sulfamate]
7.00 to 7.30 |  | 62 | Nc1ncnc2c1c(SCC1CC1)nn2[C@H]1C[C@H](O)[C@@H](COS(N)(=O)=O)O1 [Compound I-202, [(2R,3S,5R)-5-{4-amino-3-[(cyclopropylmethyl)sulfanyl]-1H-pyrazolo[3,4-d]pyrimidin-1-yl}-3-hydroxytetrahydrofuran-2-yl]methyl Sulfamate]
> 7.70 |  | 86 | Cc1ccc(Sc2nn([C@@H]3O[C@H](COS(N)(=O)=O)[C@@H](O)[C@H]3O)c3ncnc(N)c23)cc1 [Compound I-89, [(2R,3S,4R,5R)-5-{4-amino-3-[(4-methylphenyl)sulfanyl]-1H-pyrazolo[3,4-d]pyrimidin-1-yl}-3,4-dihydroxytetrahydrofuran-2-yl]methyl sulfamate]
7.00 to 7.30 |  | 58 | Nc1ncnc2c1c(Sc1cc3c(cc1F)CCC3)nn2[C@H]1C[C@H](O)[C@@H](COS(N)(=O)=O)O1 [Compound I-203, [(2R,3S,5R)-5-{4-amino-3-[(6-fluoro-2,3-dihydro-1H-inden-5-yl)sulfanyl]-1H-pyrazolo[3,4-d]pyrimidin-1-yl}-3-hydroxytetrahydrofuran-2-yl]methyl Sulfamate]
7.00 to 7.30 |  | 62 | Nc1ncnc2c1c(SCC(F)F)nn2[C@H]1C[C@H](O)[C@@H](COS(N)(=O)=O)O1 [Compound I-165, [(2R,3S,5R)-5-{4-amino-3-[(2,2-difluoroethyl)sulfanyl]-1H-pyrazolo[3,4-d]pyrimidin-1-yl}-3-hydroxytetrahydrofuran-2-yl]methyl sulfamate]
> 7.70 | 85 |  | Nc1ncnc2c1c(Sc1cccc(Cl)c1)nn2[C@@H]1O[C@H](COS(N)(=O)=O)[C@@H](O)[C@H]1O [Compound I-40, [(2R,3S,4R,5R)-5-{4-amino-3-[(3-chlorophenyl)sulfanyl]-1H-pyrazolo[3,4-d]pyrimidin-1-yl}-3,4-dihydroxytetrahydrofuran-2-yl]methyl sulfamate]
7.00 to 7.30 |  | 52 | Nc1ncnc2c1c(SCc1ccncc1)nn2[C@@H]1O[C@H](COS(N)(=O)=O)[C@@H](O)[C@@H]1F [Compound I-124, [(2R,3R,4S,5R)-5-{4-amino-3-[(pyridin-4-ylmethyl)sulfanyl]-1H-pyrazolo[3,4-d]pyrimidin-1-yl}-4-fluoro-3-hydroxytetrahydrofuran-2-yl]methyl sulfamate]
7.00 to 7.30 | 64 |  | Nc1ncnc2c1c(SCC1(O)CCCCC1)nn2[C@@H]1O[C@H](COS(N)(=O)=O)[C@@H](O)[C@H]1O [Compound I-86, [(2R,3S,4R,5R)-5-(4-amino-3-{[(1-hydroxycyclohexyl)methyl]sulfanyl}-1H-pyrazolo[3,4-d]pyrimidin-1-yl)-3,4-dihydroxytetrahydrofuran-2-yl]methyl Sulfamate]
7.30 to 7.70 |  | 75 | Nc1ncnc2c1c(Sc1cccc(F)c1)nn2[C@@H]1O[C@H](COS(N)(=O)=O)[C@@H](O)[C@@H]1F [Compound I-116, [(2R,3R,4S,5R)-5-{4-amino-3-[(3-fluorophenyl)sulfanyl]-1H-pyrazolo[3,4-d]pyrimidin-1-yl}-4-fluoro-3-hydroxytetrahydrofuran-2-yl]methyl sulfamate]
